Assay results published in patent US7414061B2, “Aryl-isoxazol-4-yl-imidazole derivatives” (Hoffmann-La Roche Inc., priority 2005, dated 2008).

Target: T1, GABA A receptor α5β3γ2 (hα5) (Homo sapiens, UniProt P18507+P31644)
T1 construct: expressed in transfected cells; host or cells: HEK293 (transiently transfected), membrane preparation
Assay: [3H]flumazenil competition binding assay, human GABA A α5β3γ2
Settings: displacement of [3H]flumazenil (0.5 nM) from HEK293 cell membranes expressing α5β3γ2; means of two determinations; read-out: Ki[nM] hα5
Protocol: The affinity of compounds at GABA A receptor subtypes was measured by competition for [3H]flumazenil (85 Ci/mmol; Roche) binding to HEK293 cells expressing rat (stably transfected) or human (transiently transfected) receptors of composition α1β3γ2, α2β3γ2, α3β3γ2 and α5β3γ2.
Cell pellets were suspended in Krebs-tris buffer (4.8 mM KCl, 1.2 mM CaCl2, 1.2 mM MgCl2, 120 mM NaCl, 15 mM Tris; pH 7.5; binding assay buffer), homogenized by polytron for ca. 20 sec on ice and centrifuged for 60 min at 4° C. (50000 g; Sorvall, rotor: SM24=20000 rpm). The cell pellets were resuspended in Krebs-tris buffer and homogenized by polytron for ca. 15 sec on ice. Protein was measured (Bradford method, Bio-Rad) and aliquots of 1 mL were prepared and stored at −80° C.
Radioligand binding assays were carried out in a volume of […] (96-well plates) which contained […] of cell membranes, [3H]flumazenil at a concentration of 1 nM for α1, α2, α3 subunits and 0.5 nM for α5 subunits and the test compound in the range of […]. Nonspecific binding was defined by 10^−5 M diazepam and typically represented less than 5% of the total binding. Assays were incubated to equilibrium for 1 hour at 4° C. and harvested onto GF/C uni-filters (Packard) by filtration using a Packard harvester and washing with ice-cold wash buffer (50 mM Tris; pH 7.5). After drying, filter-retained radioactivity was detected by liquid scintillation counting. Ki values were calculated using Excel-Fit (Microsoft) and are the means of two determinations.

| Ki [nM] | SMILES |
| --- | --- |
| 12.7 | Cc1onc(-c2ccccc2)c1-c1cn(-c2ccc([N+](=O)[O-])cc2)c(COCc2ccccc2F)n1 [Example 160, 4-[2-(2-Fluoro-benzyloxymethyl)-1-(4-nitro-phenyl)-1H-imidazol-4-yl]-5-methyl-3-phenyl-isoxazole] |
| 16.3 | Cc1onc(-c2ccccc2)c1-c1cn(-c2ccc([N+](=O)[O-])cc2)c(COCc2ccccn2)n1 [Example 161, 2-[4-(5-Methyl-3-phenyl-isoxazol-4-yl)-1-(4-nitro-phenyl)-1H-imidazol-2-ylmethoxymethyl]-pyridine] |
| 28.2 | Cc1cccc(COCc2nc(-c3c(-c4ccccc4)noc3C)cn2-c2ccc([N+](=O)[O-])cc2)n1 [Example 162, 2-Methyl-6-[4-(5-methyl-3-phenyl-isoxazol-4-yl)-1-(4-nitro-phenyl)-1H-imidazol-2-ylmethoxymethyl]-pyridine] |
| 9.5 | Cc1onc(-c2ccccc2)c1-c1cn(-c2ccc([N+](=O)[O-])cc2)c(COCc2cccnc2)n1 [Example 163, 3-[4-(5-Methyl-3-phenyl-isoxazol-4-yl)-1-(4-nitro-phenyl)-1H-imidazol-2-ylmethoxymethyl]-pyridine] |
| 27 | Cc1onc(-c2ccccc2)c1-c1cn(-c2ccc([N+](=O)[O-])cc2)c(COCc2ccc(C(F)(F)F)nc2)n1 [Example 164, 5-[4-(5-Methyl-3-phenyl-isoxazol-4-yl)-1-(4-nitro-phenyl)-1H-imidazol-2-ylmethoxymethyl]-2-trifluoromethyl-pyridine] |
| 18.2 | Cc1onc(-c2ccccc2)c1-c1cn(-c2ccc([N+](=O)[O-])cc2)c(COCc2ccncc2)n1 [Example 165, 4-[4-(5-Methyl-3-phenyl-isoxazol-4-yl)-1-(4-nitro-phenyl)-1H-imidazol-2-ylmethoxymethyl]-pyridine] |
